Test results reported in patent publication US20020127268A1, “Anion regulator for ruminants” (AJINOMOTO CO., INC., priority 1997, published 2002).

Test system: Holstein calves
Assay: Test on anion regulating activity (urinary pH)
Assay type: in vivo
Details: Table 3 and FIG. 1 summary
Procedure: If a DCAD value is positive, the urinary pH is 7-8.5. It is also known that if an anion regulator is added, and as a result the feed is changed to show a negative DCAD value, the urinary pH of animals to which such feed has been fed is reduced and will show a value of 6.5-5.5 when the anion regulator has been added in an appropriate amount. […] (1995), Sep., p.634 (Japanese version).
Experiments were conducted using six(6) Holstein calves with a body weight of approximately 200 kg. They were divided into three groups, two calves in a group. The groups were each fed with one of the following three(3) types of experimental feeds. Feed consisting of […] concentrated feed (“Beef-fast”, ex Itochu Feed Co.), 550 g of timothy-hay and 550 g of alfalfa hay cubes was fed, twice a day, at 9 and 16 o'clock, for one week before the start of the experiment, for adaptation.
These three(3) types of mixed feeds were separately supplied to each group at 9 and 16 o'clock on the same day and at 9 o'clock on the next day. After 10 minutes, each mixed feed was removed, and subsequently, a mixture of 900 g of concentrated feed, 500 g of timothy-hay and 550 g of alfalfa hay cubes, was supplied instead.
In the table and figure, for example, terms Lys HCl 1 and Lys HCl 2 indicate respectively the two calves in the first group which was fed with Lys HCl (Lys HCl-feeded group).

Row | SMILES | Effectiveness as anion regulator | Reduction of urinary pH compared with NH4Cl
1 | Cl.N=C(N)NCCC[C@H](N)C(=O)O [L-arginine hydrochloride, L-arginine monohydrochloride] | effective as anion regulators | reduce urinary pH better than NH4Cl
2 | Cl.NCCCC[C@H](N)C(=O)O [L-lysine hydrochloride, L-lysine monohydrochloride] | effective as anion regulators | reduce urinary pH better than NH4Cl
